Here are results for one compound from patent US20260097012A1, “COMPOSITIONS AND METHODS FOR TREATING GRAFT-RELATED ARRHYTHMIA” (BlueRock Therapeutics LP, priority 2022, published 2026).

The test system of the experiment is graft related arrhythmias (sustained VT). The experiment is described as follows: Treatment of graft-induced arrhythmia in pig model (myocardial infarction plus cardiomyocyte graft). The following applies: pig P2, after VT on day 10/11; by day 13 onwards.

Consider `CCCCc1oc2ccccc2c1C(=O)c1cc(I)c(OCCN(CC)CC)c(I)c1` [amiodarone], for which the “effect of adjusting the dosage on rhythm” value was “effective at achieving normal sinus rhythm”.
